According to US7781565B2 (priority 2006, dated 2010):
Entries after “also recorded” stand apart in the source; their conditions may differ.

Test system: NCI-60 cell lines
Format: cell-based, human

Substance | Cell Line the peptide is associated with (peptide recovered from phage library selection on this NCI-60 cell line) | Cell Line (NCI-60 cell line the peptide is associated with) | Cell Line with which the peptide (and its tripeptide motif) is associated | Cell Line (NCI-60 cell line the peptide and its motif are associated with)
ARGTMTG | ACHN Renal |  |  | 
ARGVAEY |  | SF-295 CNS |  | 
ARGVLLM |  |  | CCRF-CEM Leukemia | 
ARGVSAP |  | KM-12C Colon |  | 
ARHGSSV |  |  |  | M14 Melanoma
ARLLRGG |  |  |  | DU-145 Prostate
ARLRASR |  |  |  | PC3 Prostate
ARLSLEL | TK-10 Renal |  |  | 
ARNAASP |  |  | A549-Lung | 
ARRGLGL |  | SNB-75 CNS |  | 
ARRGSGL |  | MALME-3M Melanoma |  | MALME-3M Melanoma
ARRGVLG |  | COLO-205-Colon |  | 
ARSSHRA |  | HCT-116 Colon |  | 
ARSSIVR |  | SF-268 CNS |  | 
ARVGVSP |  |  | H322-Lung | 
ARVSGRV |  |  | H23-Lung | 
ARYSLRS |  |  |  | 786-0 Renal
ASAGAVS |  |  |  | 786-0 Renal
ASAVSGR |  | HT-29 Colon |  | 
ASEGGRA |  |  |  | SK-OV-3-3 Ovarian
ASGLVVT |  | SNB-75 CNS |  | 
ASGRVAN |  | HCT-116 Colon |  | 
ASGTLLR |  |  |  | SK-MEL-28 Melanoma

Substance | Cell Line the peptide is associated with (peptide recovered from phage library selection on this NCI-60 cell line) | Cell Line (NCI-60 cell line the peptide is associated with) | Cell Line with which the peptide (and its tripeptide motif) is associated | Cell Line (NCI-60 cell line the peptide and its motif are associated with)
ASLHHRR |  | SW620-Colon |  | 
ASLPMLH | ACHN Renal |  |  | 
ASLPPRA |  |  | EKVX-Lung | 
ASLPVLD |  |  |  | M14 Melanoma
ASLRYYV |  |  | SR Leukemia | 
ASLSVVI | UO31 Renal |  |  | 
ASLVARN |  |  |  | SK-OV-3-3 Ovarian
ASPPLRS |  |  |  | A498 Renal
ASVRAGR |  |  | Molt-4-Leukemia | 
ASYAGLV |  |  |  | IGROV1 Ovarian
ATGRVLG |  |  | Molt-4-Leukemia | 
ATGSGSV |  |  |  | PC3 Prostate
ATIPGGS |  | LOX-IMVI Melanoma |  | 
ATLDGVS |  |  |  | SK-OV-3-3 Ovarian
AVALGGS |  |  |  | UACC 257 Melanoma
AVDGLRL |  |  | SR Leukemia | 
AVEGRGS |  | HCT-116 Colon |  | 
AVFRASR | CAIK-1 Renal |  |  | 
AVGRGSG |  |  | Hop-92-Lung | 
AVGVSAA | MDA-MB-231 Breast |  |  | 
AVHSGRL | ACHN Renal |  |  | 
AVLVAGG |  |  | CCRF-CEM Leukemia | 
AVRGGRP |  |  | Hop-92-Lung | 

Substance | Cell Line the peptide is associated with (peptide recovered from phage library selection on this NCI-60 cell line) | Cell Line (NCI-60 cell line the peptide is associated with) | Cell Line with which the peptide (and its tripeptide motif) is associated | Cell Line (NCI-60 cell line the peptide and its motif are associated with)
AVRGVAR |  |  | HL-60-Leukemia | 
AVSGRGW |  |  | Molt-4-Leukemia | 
AVSGRSL |  |  |  | M14 Melanoma
AVSKRLP |  |  | H522-Lung | 
AVSLAWQ | T-47D Breast |  |  | 
AVSLVVL |  |  |  | OVCAR-8 Ovarian
AVWGGLG |  |  | H226-Lung | 
AVWRLSH |  |  | H322-Lung | 
AVYRAGR |  |  | H522-Lung | 
AVYVGRL | NCI/ADR-RES Breast |  |  | 
AWAGGDM |  |  |  | DU-145 Prostate
AWLLSGR |  |  |  | UACC 257 Melanoma
AWRHAGG |  | SNB-19 CNS; also recorded: SF-539 CNS |  | 
AYYSLRS |  | KM-12C Colon |  | 
CAGRARR |  | SNB-75 CNS |  | 
CGARGAA |  |  | H322-Lung | 
CGAVAEW |  |  |  | PC3 Prostate
CGEGLVV |  |  |  | DU-145 Prostate
CHARGVT |  |  | Molt-4-Leukemia | 
CMAGSQD | SN12C Renal |  |  | 
CMLRSAT |  |  |  | SK-MEL-2 Melanoma
CPGSGII |  | LOX-IMVI Melanoma |  | 
CQGLVLQ |  |  | K-562-Leukemia | 

Substance | Cell Line the peptide is associated with (peptide recovered from phage library selection on this NCI-60 cell line) | Cell Line (NCI-60 cell line the peptide is associated with) | Cell Line with which the peptide (and its tripeptide motif) is associated | Cell Line (NCI-60 cell line the peptide and its motif are associated with)
CRGSIGA | BT-549 Breast |  |  | 
CRRSSLL |  |  |  | SK-MEL-2 Melanoma
CTAGSVS |  |  |  | IGROV1 Ovarian
CVGLGCH |  |  |  | OVCAR-4 Ovarian
DAGGMDL |  | HT-29 Colon |  | 
DAGRTID |  |  | Hop-62-Lung | 
DAGSDRR |  |  | EKVX-Lung | 
DAVRGPS |  |  |  | IGROV1 Ovarian
DDGRVHR | BT-549 Breast |  |  | 
DEGGSRW |  |  |  | IGROV1 Ovarian
DEGLRSR |  | HCT-116 Colon |  | 
DELGSVQ | TK-10 Renal |  |  | 
DENRAGL |  |  |  | DU-145 Prostate
DFTLGSS | MDA-MB-231 Breast |  |  | 
DGAGSLR |  |  |  | OVCAR-5 Ovarian
DGAVILH |  |  |  | UACC 257 Melanoma
DGEGAGL |  | SNB-75 CNS |  | 
DGGGRVG | CAIK-1 Renal |  |  | 
DGGLNDC |  |  |  | OVCAR-5 Ovarian
DGGRRSS |  |  | EKVX-Lung | 
DGGRRTD |  | HCT-15 Colon |  | 
DGGSLVV |  | LOX-IMVI Melanoma |  | 
DGLVPVA |  |  |  | IGROV1 Ovarian

Substance | Cell Line the peptide is associated with (peptide recovered from phage library selection on this NCI-60 cell line) | Cell Line (NCI-60 cell line the peptide is associated with) | Cell Line with which the peptide (and its tripeptide motif) is associated | Cell Line (NCI-60 cell line the peptide and its motif are associated with)
DGPSCVI |  |  |  | UACC62 Melanoma
DGPSGCS |  | SNB-75 CNS |  | 
DGSVLVE |  |  | Molt-4-Leukemia | 
DGVSPLW | TK-10 Renal |  |  | 
DGVSSDY |  | COLO-205-Colon |  | 
DHVSGSV | CAIK-1 Renal |  |  | 
DIALVSP |  |  | A549-Lung | 
DLDGRVV |  | COLO-205-Colon |  | 
DLGLRPV |  |  | Molt-4-Leukemia | 
DLGSVQH |  | HT-29 Colon |  | 
DLLRYLA |  |  | H322-Lung | 
DLRLSFP |  |  |  | UACC 257 Melanoma
DLRRAGS |  | SW620-Colon |  | 
DLVGRVR | BT-549 Breast |  |  | 
DNCERGV |  |  |  | UACC62 Melanoma
DNDGARG |  | COLO-205-Colon |  | 
DPRGLRV |  |  | HL-60-Leukemia | 
DQQEAGS |  |  |  | 786-0 Renal
DRASSWA |  |  |  | A498 Renal
DRFGSSA | ACHN Renal |  |  | 
DRGLGMS |  |  |  | 786-0 Renal
DRGVPGL |  |  | HL-60-Leukemia | 
DRQLAGR | HS 578 T Breast |  |  | 

Substance | Cell Line the peptide is associated with (peptide recovered from phage library selection on this NCI-60 cell line) | Cell Line (NCI-60 cell line the peptide is associated with) | Cell Line with which the peptide (and its tripeptide motif) is associated | Cell Line (NCI-60 cell line the peptide and its motif are associated with)
DRYMLRS |  |  | H460-Lung | 
DSGLVGG |  | LOX-IMVI Melanoma |  | 
DTLASLR |  | HT-29 Colon |  | 
DTLRSQW |  | HCT-15 Colon |  | 
DTPAGRL | MDA-MB-231 Breast |  |  | 
DTPSAVS |  | SF-268 CNS |  | 
DVETRGS |  |  | CCRF-CEM Leukemia | 
DVHARGD | NCI/ADR-RES Breast |  |  | 
DVIARGW |  |  |  | UACC 257 Melanoma
DVPGVRF |  |  | EKVX-Lung | 
DVRAVSS |  |  | EKVX-Lung | 
DVRGRVW |  |  | H460-Lung | 
DVSGRVP |  |  | HL-60-Leukemia | 
DVVGVLK |  | SF-268 CNS |  | 
DVWVAVS |  |  |  | OVCAR-4 Ovarian
DWGRSSF |  |  | A549-Lung | 
DWGSRGV | MDA-MB-231 Breast |  |  | 
DWRRRAV |  | HCT-15 Colon |  | 
DWVCRAS |  | HT-29 Colon |  | 
DWVGVLM |  |  |  | UACC62 Melanoma
